Assay results reported in the NIST ThermoML archive (doi:10.1021/je201289w).

Assays:
[1] = refractive index (Na D-line) (dimensionless); settings: 101.33 kPa, Liquid, Standard Abbe refractometry
[2] = 101.33 kPa, Liquid, Vibrating tube method

CCCCn1cc[n+](C)c1.O=S(=O)([N-]S(=O)(=O)C(F)(F)C(F)(F)C(F)(F)C(F)(F)F)C(F)(F)C(F)(F)C(F)(F)C(F)(F)F
Settings | mass density, [2] [kg/m3] | refractive index, [1]
283.15 K | 1629.5 | 1.39249
288.15 K | 1623.4 | 1.39104
293.15 K | 1617.3 | 1.38955
298.15 K | 1611.1 | 1.38807
303.15 K | 1605 | 1.38662
308.15 K | 1599.1 | 1.38516
313.15 K | 1593.2 | 1.38367
318.15 K | 1587.4 | 1.38222
323.15 K | 1581.6 | 1.38078
328.15 K | 1575.8 | 1.3793
333.15 K | 1570 | 1.37783
338.15 K | 1564.2 | 1.37638
343.15 K | 1558.4 | 1.37496
348.15 K | 1552.6 | 1.3735
353.15 K | 1546.8 | 1.37206

CCC[N+]1(C)CCCC1.O=S(=O)([N-]S(=O)(=O)C(F)(F)F)C(F)(F)F
Settings | mass density, [2] [kg/m3] | refractive index, [1]
283.15 K | 1441 | 1.42474
288.15 K | 1436.4 | 1.42336
293.15 K | 1431.9 | 1.42201
298.15 K | 1427.4 | 1.42064
303.15 K | 1422.8 | 1.41925
308.15 K | 1418.3 | 1.41792
313.15 K | 1413.8 | 1.41656
318.15 K | 1409.3 | 1.41519
323.15 K | 1404.8 | 1.41389
328.15 K | 1400.4 | 1.41252
333.15 K | 1396 | 1.41119
338.15 K | 1391.6 | 1.40986
343.15 K | 1387.2 | 1.40853
348.15 K | 1382.9 | 1.40718
353.15 K | 1378.6 | 1.40589

CCn1cc[n+](C)c1.O=S(=O)([N-]S(=O)(=O)C(F)(F)F)C(F)(F)F
Settings | mass density, [2] [kg/m3] | refractive index, [1]
283.15 K | 1533.8 | 1.42738
288.15 K | 1528.7 | 1.42594
293.15 K | 1523.6 | 1.42451
298.15 K | 1518.5 | 1.42309
303.15 K | 1513.4 | 1.42166
308.15 K | 1508.4 | 1.42022
313.15 K | 1503.3 | 1.41881
318.15 K | 1498.3 | 1.4174
323.15 K | 1493.3 | 1.41597
328.15 K | 1488.4 | 1.41458
333.15 K | 1483.4 | 1.41319
338.15 K | 1478.5 | 1.41177
343.15 K | 1473.6 | 1.41037
348.15 K | 1468.7 | 1.40902
353.15 K | 1463.9 | 1.4076

CCn1cc[n+](C)c1.N#CN=C=[N-] [1-ethyl-3-methylimidazolium dicyanamide]
Settings | mass density, [2] [kg/m3] | refractive index, [1]
283.15 K | 1111.4 | 1.51774
288.15 K | 1107.9 | 1.51605
293.15 K | 1104.6 | 1.51441
298.15 K | 1101.2 | 1.51278
303.15 K | 1097.9 | 1.51121
308.15 K | 1094.6 | 1.50963
313.15 K | 1091.3 | 1.50808
318.15 K | 1088 | 1.50655
323.15 K | 1084.8 | 1.50502
328.15 K | 1081.5 | 1.50351
333.15 K | 1078.3 | 1.50191
338.15 K | 1075.2 | 1.5003
343.15 K | 1072 | 1.49865
348.15 K | 1068.9 | 1.49708
353.15 K | 1065.8 | 1.49557

CCOS(=O)(=O)[O-].CCn1cc[n+](C)c1 [1-ethyl-3-methylimidazolium ethyl sulfate]
Settings | mass density, [2] [kg/m3] | refractive index, [1]
283.15 K | 1247.7 | 1.48317
288.15 K | 1244.3 | 1.48185
293.15 K | 1241 | 1.48053
298.15 K | 1237.6 | 1.47921
303.15 K | 1234.3 | 1.47789
308.15 K | 1231 | 1.47657
313.15 K | 1227.6 | 1.47528
318.15 K | 1224.3 | 1.47395
323.15 K | 1220.9 | 1.47262
328.15 K | 1217.6 | 1.4713
333.15 K | 1214.2 | 1.46994
338.15 K | 1210.9 | 1.4685
343.15 K | 1207.6 | 1.46723
348.15 K | 1204.2 | 1.46596
353.15 K | 1200.9 | 1.46468
